Test results from ChEMBL document CHEMBL6134926, “Targeting KRAS G12D Mutations: Advances in Small Molecule Inhibitors and PROTAC Technology” (ACS Med Chem Lett, 2025).

Columns and labels:
SOS1-KRAS = SOS1-KRAS (Homo sapiens, UniProt P01116, G12D); test: (§1) Inhibition of GST-tagged KRAS G12D mutant (2 to 169 residues) (unknown origin)/SOS1 catalytic domain (564 to 1069 residues) (unknown origin) protein-protein interaction preincubated with compound for 90 mins followed by SOS1 and GTP-DY-647P1 addition and measured after 30 mins by fluorescence based nucleotide exchange assay; format: protein-complex assay
[1] = Inhibition of ERK phosphorylation in human GP2d cells harboring KRAS G12D mutant incubated for 3 hrs by ICW assay; format: cell-based
[2] = as §1, with “G12V” for “G12D”, “60” for “30”; design: species or system Homo sapiens

IC50 (SOS1-KRAS) | IC50 [1] | IC50 [2] | SMILES
< 10 nM | 10 nM |  | CC1(c2csc(N)c2C#N)CN(c2nc(OC[C@@]34CCCN3C[C@H](F)C4)nc(N3C[C@H]4CC[C@@H](C3)N4)c2C#N)C1
< 10 nM | 1 nM | < 10 nM | CN(C)C(=O)c1nn2c(c1Cl)CN(c1nc(OC[C@@]34CCCN3C[C@H](F)C4)nc(N3CC(c4c(Cl)sc(N)c4C#N)C3)c1C#N)CCC2
< 10 nM | 10 nM | < 10 nM | C[C@H](c1cccnc1N)N(C)c1nc(OC[C@@]23CCCN2C[C@H](F)C3)nc(N2CC(C)(c3csc(N)c3C#N)C2)c1C#N
10 nM | 1000 nM |  | CN(C)C(=O)c1nn2c(c1Cl)CN(c1cc(N3CC(C)(c4csc(N)c4C#N)C3)nc(OC[C@@]34CCCN3C[C@H](F)C4)n1)CCC2
< 10 nM | 10 nM | < 10 nM | CN(C)C(=O)c1nn2c(c1Cl)CN(c1nc(OC[C@@]34CCCN3C[C@H](F)C4)nc(N3CCC(c4c(Cl)sc(N)c4C#N)C3)c1C#N)CCC2 (stereo partly specified)
< 10 nM | 100 nM | < 10 nM | CN(C)C(=O)c1nn2c(c1Cl)CN(c1nc(OC[C@@]34CCCN3C[C@H](F)C4)nc(N3CC(c4csc(N)c4C#N)C3)c1C#N)CCC2
